Assays:
rat NOS1 = assay: Anaerobic reduction of paraquat by NOS1 at 600 nm; Hanes plot; type: biochemical
Description: Anaerobic reduction of paraquat by NOS1 to paraquat.^+ was followed at 600 nm spectrophotometrically and converted to a concentration using the extinction coefficient E600 =13,700 M^-1 cm^-1. Reactions (1 ml) were performed in the NADPH oxidation buffer described above in the absence of L-arginine, dithiothreitol and tetrahydrobiopterin. Reactions were initiated by the addition of 2 U of NOS1 and followed for 3 minutes at 37° C.

[1] = test system: RAW-264.7 monocyte macrophage cells; assay: NO production, nitrite plus nitrate, in macrophages; type: cell-based; conditions: 0.1 mM paraquat, 24 hours
Description: (§1) The RAW-264.7 monocyte macrophage cells line (TIB-71) was purchased from the American Type Culture Collection (Manassas, Va.). The cells were grown in T-75 flasks containing DMEM (Gibco-BRL, Grand Island, N.Y.) supplemented with 1 mM pyruvate, 4.5 g/L glucose and […] fetal bovine serum Macrophages were plated at 2.0×10^4 cells/well in 24-well plates and experiments were performed when cells were near confluence. Macrophages were immunostimulated with 50 ng/ml lipopolysaccharide (LPS) from E. coli serotype 0111:B4 (Signia, St. Louis, Mo.) and 50 U/ml recombinant mouse interferon gamma (INF-γ, R&D Systems, Minneapolis,Minn.). Macrophages were used between passages 2-8. Cell cultures were kept in a 37° C. incubator with air and 5% carbon dioxide.
(§2) NOS2 was induced in RAW cells using a mixture of interferon-γ and lipopolysaccharide (LPS) referred to as "cytomix." Unstimulated (basal) and activated (cytomix) macrophages were treated with 0.1 mM paraquat or not treated with paraquat and cytotoxicity and NO production were assessed at 24 hours.
NO production, assessed by measuring the accumulation of the NO metabolites nitrite and nitrate 24 hours after cytomix treatment, is shown in FIG. 4(b). […] NOS2 expression was not affected (data not shown).
To further exclude the role of peroxynitrite, macrophages were treated with increasing concentrations of the NO-donor, DETA NONOate in the presence of 0.1 mM paraquat. Macrophage cytotoxicity and NO release were assessed 24 hours after treatments. Cell injury was assessed by measuring LDH release.

nitrotyrosine = assay: Nitrotyrosine staining in macrophages; type: cell-based; conditions: combination of paraquat and cytomix
Description: Western blot analysis was carried out as follows. Cells were lysed in ice-cold 50 mM Tris buffer (pH 7.4) containing 1% sodium dodecyl sulfate and protease inhibitor cocktail (Boehringer Mannheim). Protein (10 μg) was separated on a 4-20% gradient SDS-PAGE at 250 V for 30 minutes and transferred onto a nitrocellulase membrane at 30 V for 12 hours. Proteins were detected using polyclonal antibodies against human NOS3 (TransductionLaboratories; 1/1000) and nitrated keyhole limpet hemocyanin, nitrotyrosine (Upstate Biology; 1/5000). Primary antibodies were detected with a goat anti-rabbit-HRP antibody (Jackson; 1/15,000) and developed using an ECL kit (Amersham).
The RAW-264.7 monocyte macrophage cells line (TIB-71) was purchased from the American Type Culture Collection (Manassas, Va.). The cells were grown in T-75 flasks containing DMEM (Gibco-BRL, Grand Island, N.Y.) supplemented with 1 mM pyruvate, 4.5 g/L glucose and […] fetal bovine serum Macrophages were plated at 2.0×10^4 cells/well in 24-well plates and experiments were performed when cells were near confluence. […]
as §2

[2] = Working Example XIII: accident victim with hypotension; type: in vivo, human; conditions: IV 0.4 milligrams per kilogram over 2 hours
Description: A accident victim presents with a blood pressure of 80/60 and a hematocrit of 20. They are bleeding profusely from an abdominal would and doctors are having difficulty maintaining their blood pressure with fluid resuscitation. They are begun on an intravenous drip of paraquat of 0.4 milligrams per kilogram over 2 hours.

Rabbit aortic rings = assay: Exogenous NO-induced relaxation of aortic rings; conditions: 2 mM paraquat, phenylephrine 1 μM; FIG. 3(b)
Description: New Zealand white male rabbits weighting 3-4 kg were anaesthetized with phenobarbital (30 mg/kg/iv). The descending thoracic aorta was isolated and placed in Krebs-Henseleit buffer (pH 7.4) and stored at 4° C. until used. The vessels were cut into 5 mm rings and submerged in 25 ml double jacketed tissue baths containing Krebs-Henseleit buffer bubbled with 95% oxygen and 5% carbon dioxide at 37° C. Rings were hung on stainless steel stirrups connected to calibrated force transducers. Rings were equilibrated with 2 g resting tension for 1 hour before use and contracted with phenylephrine (1 μM). Rings were incubated with paraquat for 15 minutes before acetylcholine-induced or exogenous relaxations were performed.
In another case, rabbit aortic rings were constricted with 1 μM phenylephrine (initial contraction) and relaxed with increasing concentration of NO in the presence or absence of 2 mM paraquat. The results are shown in FIG. 3(b) where relaxations are expressed as a percent of the initial phenylephrine-induced contraction.

squamous cell carcinoma = assay: Working Example VI: mouth squamous cell carcinoma patient; type: in vivo, human; conditions: 5 cc swish and spit, 100 μM
Description: A mouth lesion is noted in a smoker during a routine dental visit. The lesion is found to be a squamous cell carcinoma. […] The patient is given a 5 cc solution of paraquat swish and spit (at a dose of 100 μM).

solid tumor = assay: Working Example VII: solid tumor patient; type: in vivo, human; conditions: IV infusion 4 milligram per kilogram, seven cycles, after 5,6 MEXAA; two weeks
Description: A person is given the anti-tumor agent 5,6 dimethylxanthemone-4-acetic acid (5,6 MEXAA) to treat a solid tumor identified by biopsy on the left lower extremity, and lung. […] At this time, the patient is treated with intravenous infusion of paraquat (4 milligram per kilogram) for seven cycles.

[3] = test system: CPA-47 endothelial cell line; assay: LDH release from endothelial cells (cytotoxicity); type: cell-based; conditions: 2 mM paraquat, 24 hours; FIG. 2(b)
Description: To test whether the above effect was present in intact cells, endothelial cell cultures, constitutively expressing NOS3 protein as determined by western blot analysis, were treated with 2 mM paraquat in the presence of increasing concentrations of either L-NAME or L-NMMA.
The endothelial cells were obtained as follows: CPA-47 endothelial cell line (CRL-1733) was purchased from American Type Culture Collection (Manassas, Va.). Endothelial cells were grown in T-75 flasks containing Ham's F-12 K medium supplemented by 1 mM […] and 10% equine serum (Gibco-BRL, Grand Island, N.Y.). Endothelial cells were plated at 3.5×10^4 cells/well in 24-well plates and experiments were performed 48 hours later when cells were near confluence. Medium was changed to minimal essential medium without serum supplement. Endothelial cells were from passages 30-36.
Cytotoxicity was measured as the percent release of LDH and compared to vehicl-treated cells (basal). The percent release of cytosolic lactate dehydrogenase (LDH) into the culture medium was used to assess the integrity of the cell membrane. LDH activity was measured by following the loss of NADH at 340 nm as described in Day, B. J., et al., J. Pharmacol. Exp. Ther. 275, 1227-1232 (1995). The percent release of LDH into the culture medium 24 hours after the paraquat treatment was used to assess cell injury.

NOS2 = NOS2 expression in macrophages; type: cell-based; conditions: 0.1 mM paraquat, cytomix; data not shown
Description: as §1, §2

With `C[n+]1ccc(-c2cc[n+](C)cc2)cc1` [paraquat] as the compound, how does the “paraquat reductase activity (Hanes plot)” value (rat NOS1; FIG. 1(d)) read?
The value was “increased paraquat reduction with increasing paraquat concentration”.

What about the “reduction of paraquat to its cation radical (600 nm)” value (rat NOS1; anaerobic, without L-arginine, 37° C., 3 minutes, FIG. 1(c)) of the same compound?
The value was “direct and progressive reduction of paraquat to its cation radical”.

What about the “formation of NO metabolites from DETA NONOate” value ([1]; FIG. 4(d)) of the same compound?
Its value is “does not alter the formation of NO metabolites from DETA NONOate”.

What about the “percent decrease in nitrite and nitrate compared with percent increase in cell death” value ([1]; cytomix-activated) of the same compound?
The value was “percent decrease in nitrite and nitrate was greater than percent increase in cell death”.

What about the “NO production (nitrite and nitrate)” value ([1]; cytomix-activated, FIG. 4(b)) of the same compound?
Its value is “significantly attenuated NO production”.

What about the nitrotyrosine staining (nitrotyrosine) of the same compound?
The nitrotyrosine staining was “A decrease in nitrotyrosine staining”.

What about the patient condition [2] of the same compound?
The patient condition was “the patient is stabilized”.

What about the blood pressure ([2]; from 80/60) of the same compound?
Its blood pressure is 100/70.

What about the “effect on exogenously added NO-induced relaxation” value (Rabbit aortic rings) of the same compound?
Its value is “did not inhibit exogenously added NO-induced relaxation”.

What about the adverse effect (squamous cell carcinoma) of the same compound?
Its adverse effect is “complicating oral ulcerations”.

And the tumor regression (squamous cell carcinoma; seven days)?
Its tumor regression is “tumor is found to have regressed”.

And the tumor regression (solid tumor)?
Its tumor regression is “tumor regresses and is not longer detectable”.

What about the “increase in LDH release” value [3] of the same compound?
Its value is “three-fold”.

What about the NOS2 expression (NOS2) of the same compound?
The NOS2 expression was “not affected”.

Source: patent US6231894A, “Treatments based on discovery that nitric oxide synthase is a paraquat diaphorase” (Duke University, priority 1999, dated 2001)
